Measurements taken from patent US7425563B2, “4-(Substituted aryl)-5-hydroxyisoquinolinone derivative” (Kyorin Pharmaceutical Co., Ltd., priority 2002, dated 2008).

biological target: T1, PARP (Homo sapiens, UniProt P09874); experiment: Inhibitory experiment against PARP activity; assay type: biochemical; details: PARP (Trevigen), [14C]NAD, activated DNA, 25° C., 10 minutes; concentration decreasing enzyme activity to 50%
T1 construct: purchased Trevigen 4667-050-01
Experimental: After mixing well, the contents were warmed to 25° C. in a water bath. After 10 minutes, the reaction was stopped by adding 1 mL of ice-cold 20% trichloroacetic acid and the test tube was left on ice. The precipitates were collected on a glass fiber filter by suction filtration and washed 5 times with 5% trichloroacetic acid. The radioactivity on the filter was measured with liquid scintillation counter.

T1 sequence (P09874 whole entry): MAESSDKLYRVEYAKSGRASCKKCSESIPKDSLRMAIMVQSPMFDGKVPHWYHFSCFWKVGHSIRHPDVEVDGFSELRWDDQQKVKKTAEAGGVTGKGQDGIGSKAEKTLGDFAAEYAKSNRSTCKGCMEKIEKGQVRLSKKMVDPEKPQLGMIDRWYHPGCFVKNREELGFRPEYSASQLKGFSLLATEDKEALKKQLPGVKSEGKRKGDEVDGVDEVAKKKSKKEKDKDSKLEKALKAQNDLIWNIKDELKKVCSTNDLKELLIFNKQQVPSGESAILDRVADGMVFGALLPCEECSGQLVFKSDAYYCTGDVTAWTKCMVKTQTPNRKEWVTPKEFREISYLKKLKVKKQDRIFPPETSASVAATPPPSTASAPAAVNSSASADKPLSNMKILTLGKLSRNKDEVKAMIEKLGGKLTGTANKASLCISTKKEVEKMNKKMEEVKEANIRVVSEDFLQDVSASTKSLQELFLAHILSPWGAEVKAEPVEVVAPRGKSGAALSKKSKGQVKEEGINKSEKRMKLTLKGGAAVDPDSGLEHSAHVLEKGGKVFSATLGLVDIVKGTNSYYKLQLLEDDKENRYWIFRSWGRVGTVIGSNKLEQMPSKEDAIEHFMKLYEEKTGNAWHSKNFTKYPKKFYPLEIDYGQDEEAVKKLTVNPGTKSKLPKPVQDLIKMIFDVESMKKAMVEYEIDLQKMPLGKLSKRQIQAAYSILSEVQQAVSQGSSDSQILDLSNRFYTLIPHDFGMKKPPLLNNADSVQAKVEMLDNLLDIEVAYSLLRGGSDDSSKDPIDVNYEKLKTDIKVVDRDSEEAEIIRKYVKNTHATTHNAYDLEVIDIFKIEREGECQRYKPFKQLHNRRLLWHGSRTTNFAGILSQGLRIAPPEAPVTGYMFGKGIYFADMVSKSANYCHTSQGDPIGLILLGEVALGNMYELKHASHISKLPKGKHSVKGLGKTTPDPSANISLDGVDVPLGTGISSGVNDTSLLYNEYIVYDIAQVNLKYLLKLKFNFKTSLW

Row | Compound | IC50
1 | CN(Cc1ccc(-c2c[nH]c(=O)c3cccc(O)c23)cc1)CC1CCCCC1 [Example 23] | 126 nM
2 | O=c1[nH]cc(-c2ccc(CN3CCCC3)cc2)c2c(O)cccc12 [Example 32] | 33 nM
3 | O=c1[nH]cc(-c2ccc(CN3CC=C(c4ccccc4)CC3)cc2)c2c(O)cccc12 [Example 61, 1,2-Dihydro-5-hydroxy-1-oxo-4-[4-[(4-phenyl-1,2,3,6-tetrahydropyridine-1-yl)methyl]phenyl]isoquinoline] | 20 nM

The next lines start with the values.

Row | IC50 | Compound
4 | 54 nM | CN(Cc1ccccc1)Cc1ccc(-c2c[nH]c(=O)c3cccc(O)c23)cc1 [Example 12]
5 | 41 nM | CN(CCc1ccccc1)Cc1ccc(-c2c[nH]c(=O)c3cccc(O)c23)cc1 [Example 19]
6 | 47 nM | CN(CCCc1ccccc1)Cc1ccc(-c2c[nH]c(=O)c3cccc(O)c23)cc1 [Example 21]
